Each structure is given as a SMILES string.

The subject of one series is MCF-7 cells. Nature of the series: alamarBlue cell proliferation (cytotoxicity) assay, MCF-7. The settings on record: 100 nM, 2 days incubation. It counts as cell-based. As to the method: (§1) FIGS. 6A-6C. Cell viability study of HuMEC cells, MCA-MB-231 cells, and Hela cells, respectively, incubated with 100 nM of IDO inhibitors. After 2 days of incubation, alamarBlue cell viability reagent was added to cells and the fluorescence intensity (arbitrary fluorescent units) was measured after 3 hours incubation (n=4). Cytotoxicity of four IDO inhibitors toward different cell lines was evaluated with a cell proliferation assay using alamarBlue cell viability reagent. Hela cells were cultured in EMEM medium (ATCC 30-2003) containing 10% FBS, MDA-MB-231 and MCF-7 were cultured in RPMI-1640 Medium containing 10% FBS, while HuMEC cells were cultured in HuMEC medium (ATCC 12752-010). The cell proliferation assay included the following: harvesting of the cells by trypsinization and adding culture media to adjust to 10000 cell/mL; add 0.2 mL of cell suspension to each well and incubated at 37° C. in 5% CO2 atmosphere for 2 days; adding 1 μL of inhibitor solution (0.1 mM in DMSO) into growth media (1 mL) to get growth media w/inhibitor; aspirating spent growth medium from the wells and adding 200 μL of growth media w/ inhibitors and incubating at 37° C. in 5% CO2 atmosphere for 2 days; adding 20 μL of the alamarBlue (Invitrogen) into each well; incubating for addition 3 hours at 37° C. in 5% CO2 atmosphere; and reading the fluorescence intensity of each well with a plate reader (excitation, 544 nm; Emission 595 nm). The fluorescent signal is linear to the number of living cells.
(In general: Alamar Blue is a resazurin reagent that responds to reducing activity.)

The next series concerns HuMEC cells. As to the kind of experiment: alamarBlue cell proliferation (cytotoxicity) assay, HuMEC. It counts as cell-based. The settings on record: 100 nM, 2 days incubation. As to the method:
as §1

The next series concerns MDA-MB-231 cells. Nature of the series: alamarBlue cell proliferation (cytotoxicity) assay, MDA-MB-231. It counts as cell-based. The settings on record: 100 nM, 2 days incubation. On the procedure:
as §1

In a further series the target is IDO (Homo sapiens, UniProt P14902). Nature of the series: Inhibition of IFN-γ induced IDO activity in Hela cells. The settings on record: Hela cell lines (FIGS. 7A, 7B). The series is classed as cell-based.
Sequence of IDO (P14902 whole entry): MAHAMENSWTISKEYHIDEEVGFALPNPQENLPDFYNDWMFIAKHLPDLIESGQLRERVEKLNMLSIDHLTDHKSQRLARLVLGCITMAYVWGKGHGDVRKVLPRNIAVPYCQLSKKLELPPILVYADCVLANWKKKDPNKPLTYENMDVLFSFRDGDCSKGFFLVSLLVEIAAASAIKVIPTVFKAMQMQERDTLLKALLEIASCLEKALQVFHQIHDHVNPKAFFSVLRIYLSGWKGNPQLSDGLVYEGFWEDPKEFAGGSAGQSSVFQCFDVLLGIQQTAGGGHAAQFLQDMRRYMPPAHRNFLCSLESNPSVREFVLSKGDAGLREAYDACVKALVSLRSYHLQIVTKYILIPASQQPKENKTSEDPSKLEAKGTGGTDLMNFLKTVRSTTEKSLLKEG
The test system of another series is Hela cells. As to the kind of experiment: alamarBlue cell proliferation (cytotoxicity) assay, Hela. It counts as cell-based. The note with it: 100 nM, 2 days incubation. On the procedure: as §1
For series [1] the following is noted: via oral administration; cited from earlier work.
The target in another series is T1, tumor IDO expression (Mus musculus, UniProt P28776).
T1 construct: from tissue; host or cells: living CLL tumor mice (whole-animal microPET/CT)
T1 sequence (P28776 whole entry): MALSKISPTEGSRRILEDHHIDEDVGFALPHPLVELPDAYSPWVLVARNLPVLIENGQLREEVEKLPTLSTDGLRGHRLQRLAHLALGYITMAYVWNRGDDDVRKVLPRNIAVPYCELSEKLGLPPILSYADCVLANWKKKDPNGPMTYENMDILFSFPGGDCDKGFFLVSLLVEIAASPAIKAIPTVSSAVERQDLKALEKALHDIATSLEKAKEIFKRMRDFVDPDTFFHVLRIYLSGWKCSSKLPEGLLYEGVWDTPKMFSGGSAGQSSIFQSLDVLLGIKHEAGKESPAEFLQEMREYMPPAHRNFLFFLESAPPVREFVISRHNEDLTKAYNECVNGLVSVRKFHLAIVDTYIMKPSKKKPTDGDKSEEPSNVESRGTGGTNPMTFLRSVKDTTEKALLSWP
As to the kind of experiment: microPET/CT imaging of CLL mouse model versus wild-type mouse. The note with it: imaged 1 hour after i.p. injection of the probe; CLL tumor mice vs wild-type mice. It counts as in vivo. On the procedure: Mice were imaged 1 hour after i.p. injection of the probe.

Regarding `ON=C(Nc1ccc(F)c(Cl)c1)c1nonc1NCCF` [IDO4-9], the Cytotoxicity entry in the series on MCF-7 cells, in the series on HuMEC cells, in the series with MDA-MB-231 cells and in the series with Hela cells was “no cytotoxicity” throughout. Moreover, the “Inhibition of IDO activity” value at IDO is given as “inhibited”.
Turning to `Nc1nonc1C(=NO)Nc1ccc(F)c(Cl)c1` [IDO5L, 4-Amino-N-(3-chloro-4-fluorophenyl)-N′-hydroxy-1,2,5-oxadiazole-3-carboximidamide], the Cytotoxicity result with MCF-7 cells, in the series with HuMEC cells, in the series with MDA-MB-231 cells and with Hela cells was “no cytotoxicity” each time. The “t½ (clearance rate)” value in series [1] was < 30 min. In addition, the “Inhibition of IDO activity” value at IDO is recorded as “inhibited”.
For the compound `O=C(Cc1ccc(F)cc1)Nc1nonc1/C(=N/O)Nc1ccc(F)c(Cl)c1` [IDO5], the “Inhibition of IDO activity” value at IDO is “inhibited”.
For `O=C(Nc1nonc1/C(=N/O)Nc1ccc(F)c(Cl)c1)c1ccc(F)cc1` [IDO6], the Cytotoxicity entry with MCF-7 cells, in the series with HuMEC cells, in the series with MDA-MB-231 cells and in the series with Hela cells was “no cytotoxicity” in each case. Further, the “Inhibition of IDO activity” value at IDO is given as “inhibited”.
With `O/N=C(\Nc1ccc(F)c(Cl)c1)c1nonc1NCCO/N=C\c1ccc(F)cc1` [IDO7], the “Inhibition of IDO activity” value on IDO is recorded as “inhibited”.
Consider `Nc1nonc1/C(=N/O)Nc1ccc([18F])c(Cl)c1` [^18F-IDO5L, [18F] 4-amino-N-(3-chloro-4-fluorophenyl)-N′-hydroxy-1,2,5-oxadiazole-3-carboximidamide], for which the “microPET/CT detection of tumor IDO expression” value at tumor IDO expression is “distinguishes IDO-positive chronic lymphocytic leukemia (CLL) mouse model and wild-type mouse in vivo”.

The values above are taken from patent publication US10183082B2, “PET probes of radiofluorinated carboximidamides for IDO-targeted imaging” (H. LEE MOFFITT CANCER CENTER AND RESEARCH INSTITUTE, INC., priority 2014, dated 2019).
